Experimental data published in patent publication US10030027B2, “Soluble guanylate cyclase stimulators” (MERCK SHARP & DOHME CORP., priority 2015, dated 2018).

How the values were obtained:
[1] = target: sGC α1/β1 heterodimer (Homo sapiens (Human), UniProt Q02108+Q02153); assay: Cell-based sGC functional assay (cyclic GMP assay for sGC activator: CASA assay); conditions: CHO-K1/sGC cells; for Emax: CHO-K1, activity expressed as percentage of compound A (standard), read-out: % Activation; for EC50: inflection point, 4P fit, read-out: IP
Source text: Cell-Based sGC Functional Assay (Cyclic GMP Assay for sGC Activator: CASA Assay)
Soluble guanylate cyclase (sGC) is a heme-containing enzyme that converts GTP to secondary messenger cGMP. Increases in cGMP levels affect several physiological processes including vasorelaxation through multiple downstream pathways. […] Heme-dependent activators (HDAs) preferentially activate sGC containing a ferrous heme group. To determine the effect of sGC activators on enzyme activity, the CASA assay was developed to monitor the generation of cGMP in a cell line that stably expresses the heterodimeric sGC protein.
A CHO-K1 cell line stably expressing the sGC α1/β1 heterodimer was generated using a standard transfection protocol. CHO-K1 cells were transfected with plasmids pIREShyghsGCα1 and pIRESneo-hsGCβ1 simultaneously using FUGENE reagent. Clones that stably express both subunits were selected with hygromycin and neomycin for ˜2 weeks. Clone #7 was chosen for the assay and was designated CHO-K1/sGC. CHO-K1/sGC cells were maintained in F-K12 medium containing 10% heat-inactivated Fetal Bovine Serum (FBS), 100 μg/mL penicillin/streptomycin, 0.5 mg/mL hygromycin and 0.25 mg/mL G418. The cells were then cryopreserved in LN2. On the day of the assay, the cells were thawed and resuspended in EBSS Assay Buffer (Sigma, E3024) supplemented with 5 mM MgCl2, 10 mM HEPES (4-(2-hydroxyethyl)piperazine-1-ethanesulfonic acid) and 0.05% BSA (bovine serum albumin) (EAB) and cell density was then adjusted to 2.25×10^5/mL with EAB. IBMX (3-isobutyl-1-methylxanthin, 0.5 mM) was added to inhibit degradation of cGMP. Compounds were diluted from DMSO stock solutions and added to the assay at a final DMSO concentration of 2.5%. Cells were pre-incubated in the presence and absence of 1 μM of Diethylenetriamine/nitric oxide adduct (DETA-NO; Sigma, 17018) for 30 min at 25° C. Compounds are subsequently added and incubated for 1 hr at 37° C. At the end of the incubation period, the reaction was terminated and the cells were lysed with the detection reagents from Cisbio Kits. The level of intracellular cGMP was determined using an HTRF-based assay kit (CisBio, 62GM2PEC), which detects the displacement of a fluorescence labeled cGMP from its specific antibody. The cGMP produced by test compounds was directly compared to the maximum cGMP production (this value was set to equal 100% activation.) of the published sGC-HDA compound A:
(Example 1 in WO 2010/065275, published Jun. 10, 2010). The test compounds' activity were then expressed as a percentage of compound A, the standard in every experiment. This percent activation was calculated either in the presence or absence of DETA-NO which was then plotted. Inflection points (IP) and maximum fold induction was derived using Abase analysis software for 4P fit.

[2] = target: human recombinant sGC enzyme (Homo sapiens (Human), UniProt Q02108+Q02153); assay: Size Exclusion Chromatography (SEC) competition binding assay using [3H] Ex-77B as the radioligand; conditions: [3H] Ex-77B radioligand, 24 hours at 37° C.
Experimental: Binding Assay: The binding potencies of sGC compounds to the human recombinant sGC enzyme were determined in a Size Exclusion Chromatography (SEC) competition binding assay using [^3H] Ex-77B as the radioligand. [^3H] Ex-77B was prepared using a standardardized tritium exchange procedure. The parent (non-labeled) molecule was first iodinated then a Pd-catalyzed iodine to tritium exchange provided the labeled compound. […] Assays were conducted in 96-well plates in a total volume of 200 μL. […] Non-specific binding was defined by competition with 1 μM of Ex-77B. After the incubation period, the binding mixtures were loaded onto the gel-filtration plate (ThermoFischer Cat. No. 89808) pre-equilibrated with binding buffer and spun at 1000×g for 3 min at 4° C. on a Bench top centrifuge. The collected eluates in White Frame Clear Well Isoplates (Perkin Elmer Cat #6005040) received 100 μl of UltimaGold scintillation cocktail. The sealed plates were shaken vigorously and span, and counted after 6 hours with a Wallac Microbeta TriLux 1450 LSC & Luminescence Counter (Perkin Elmer). Data from competition experiments were analyzed to determine Ki values using one site fit Ki equation.

Row | SMILES | Emax [1] [%] | EC50 [1] [nM] | Ki [2] [nM]
1 | CC(C)(C)CCn1nc(-c2nc(N)c3c(n2)NC(=O)[C@@]3(C)c2ccc(CCC(=O)O)cc2)c2cccnc21 [Example 210B, (S)-3-(4-{4-amino-2-[1-(3,3-dimethylbutyl)-1H-pyrazolo[3,4-b]pyridin-3-yl]-5-methyl-6-oxo-6,7-dihydro-5H-pyrrolo[2,3-d]pyrimidin-5-yl}phenyl)propanoic acid] | 103 | 2020 | 0.341
2 | COCCn1nc(-c2nc(N)c3c(n2)NC(=O)[C@@]3(C)c2ccc(CCC(=O)O)cc2)c2ccc(Cl)cc21 (single isomer, unassigned) [Example 40B] | 94 | 2560 | 4.38
3 | C[C@@]1(c2ccc(CCC(=O)O)cc2)C(=O)Nc2nc(-c3nn(Cc4c(F)cccc4F)c4cc(Cl)ccc34)nc(N)c21 (single isomer, unassigned) [Example 64B] | 101 | 302 | 0.075
4 | CC1(c2cccc(C(=O)O)c2)C(=O)Nc2nc(-c3nn(CCC(F)(F)C(F)(F)F)c4cc(Cl)ccc34)nc(N)c21 (stereo not drawn) [Example 26B, 3-{4-amino-2-[6-chloro-1-(3,3,4,4,4-pentafluorobutyl)-1H-indazol-3-yl]-5-methyl-6-oxo-6,7-dihydro-5H-pyrrolo[2,3-d]pyrimidin-5-yl}benzoic acid] | 102 | 1920 | 0.266
5 | CC(C)(Cc1coc(C2(C)C(=O)Nc3nc(-c4nn(CC5CCCC5)c5cc(Cl)ccc45)nc(N)c32)n1)C(=O)O (stereo not drawn) [Example 161A, 3-(2-{4-amino-2-[6-chloro-1-(cyclopentylmethyl)-1H-indazol-3-yl]-5-methyl-6-oxo-6,7-dihydro-5H-pyrrolo[2,3-d]pyrimidin-5-yl}-1,3-oxazol-4-yl)-2,2-dimethyl-propanoic acid] | 121 | 291 | 0.081
6 | CC(C)(Cc1csc([C@]2(C)C(=O)Nc3nc(-c4nn(Cc5ccc(F)cc5F)c5cc(Cl)ccc45)nc(N)c32)n1)C(=O)O [Example 179A, (S)-3-(2-{4-amino-2-[6-chloro-1-(2,4-difluorobenzyl)-1H-indazol-3-yl]-5-methyl-6-oxo-6,7-dihydro-5H-pyrrolo[2,3-d]pyrimidin-5-yl}-1,3-thiazol-4-yl)-2,2-dimethyl-propanoic acid] | 118 | 262 | 0.144
7 | CC(C)(Cc1coc(C2(C)C(=O)Nc3nc(-c4nn(CC5CCCCO5)c5cc(F)ccc45)nc(N)c32)n1)C(=O)O (single isomer, unassigned) [Example 134AA, 3-{2-[4-amino-2-{6-fluoro-1-[tetrahydro-2H-pyran-2-ylmethyl]-1H-indazol-3-yl}-5-methyl-6-oxo-6,7-dihydro-5H-pyrrolo[2,3-d]pyrimidin-5-yl]-1,3-oxazol-4-yl}-2,2-dimethylpropanoic acid] | 104 | 807 | 0.32
8 | CC1(c2ccc(CCCC(=O)O)cc2)C(=O)Nc2nc(-c3nn(CCC(F)(F)C(F)(F)F)c4ncccc34)nc(N)c21 (stereo not drawn) [Example 116A, 4-(4-{4-amino-5-methyl-6-oxo-2-[1-(3,3,4,4,4-pentafluorobutyl)-1H-pyrazolo[3,4-b]pyridin-3-yl)-6,7-dihydro-5H-pyrrolo[2,3-d]pyrimidin-5-yl}phenyl)butanoic acid] | 78 | 608 | 0.296
9 | CC(C)(Cc1coc(C2(C)C(=O)Nc3nc(-c4nn(CC5CCCCO5)c5ccccc45)nc(N)c32)n1)C(=O)O (single isomer, unassigned) [Example 230AB, 3-{2-[4-amino-5-methyl-6-oxo-2-{1-[tetrahydro-2H-pyran-2-ylmethyl]-1H-indazol-3-yl}-6,7-dihydro-5H-pyrrolo[2,3-d]pyrimidin-5-yl]-1,3-oxazol-4-yl}-2,2-dimethyl-propanoic acid] |  |  | 0.28
10 | CC1(c2ccc(C(=O)O)cc2)C(=O)Nc2nc(-c3nn(CCC(F)(F)C(F)(F)F)c4cc(Cl)ccc34)nc(N)c21 (stereo not drawn) [Example 155B, 4-{4-amino-2-[6-chloro-1-(3,3,4,4,4-pentafluorobutyl)-1H-indazol-3-yl]-5-methyl-6-oxo-6,7-dihydro-5H-pyrrolo[2,3-d]pyrimidin-5-yl} benzoic acid] |  |  | 0.42
11 | C[C@@]1(c2ccc(CCc3nn[nH]n3)cc2)C(=O)Nc2nc(-c3nn(Cc4ncccc4F)c4ccccc34)nc(N)c21 [Example 245B, (S)-5-{4-[2-(2H-tetrazol-5-yl)ethyl]phenyl}-4-amino-2-{1-[(3-fluoro-pyridin-2-yl)methyl]-1H-indazol-3-yl}-5-methyl-5,7-dihydro-6H-pyrrolo[2,3-d] pyrimidin-6-one] |  |  | 0.333
12 | CC(C)(Cc1coc(C2(C)C(=O)Nc3nc(-c4nn(CC5CCCCO5)c5cc(F)ccc45)nc(N)c32)n1)C(=O)O (single isomer, unassigned) [Example 134AB, 3-{2-[4-amino-2-{6-fluoro-1-[tetrahydro-2H-pyran-2-ylmethyl]-1H-indazol-3-yl}-5-methyl-6-oxo-6,7-dihydro-5H-pyrrolo[2,3-d]pyrimidin-5-yl]-1,3-oxazol-4-yl}-2,2-dimethylpropanoic acid] |  |  | 0.461
13 | CC1CCC(Cn2nc(-c3nc(N)c4c(n3)NC(=O)[C@@]4(C)c3nc(CC(C)(C)C(=O)O)cs3)c3cccnc32)CC1 (single isomer, unassigned) [Example 125AA] |  |  | 0.783
14 | CC(C)(Cc1coc(C2(C)C(=O)Nc3nc(-c4nn(CC5CCCCO5)c5ncccc45)nc(N)c32)n1)C(=O)O (single isomer, unassigned) [Example 124AB, 3-{2-[4-amino-5-methyl-6-oxo-2-{1-[tetrahydro-2H-pyran-2-ylmethyl]-1H-pyrazolo[3,4-b]pyridin-3-yl}-6,7-dihydro-5H-pyrrolo[2,3-d]pyrimidin-5-yl]-1,3-oxazol-4-yl}-2,2-dimethylpropanoic acid] |  |  | 0.617
15 | CC1(c2cccc(-c3nn[nH]n3)c2)C(=O)Nc2nc(-c3nn(CCC(F)(F)C(F)(F)F)c4cc(Cl)ccc34)nc(N)c21 (single isomer, unassigned) [Example 251B, 4-amino-2-[6-chloro-1-(3,3,4,4,4-penta-fluorobutyl)-1H-indazol-3-yl]-5-methyl-5-[3-(1H-tetrazol-5-yl)phenyl]-5,7-dihydro-6H-pyrrolo[2,3-d] pyrimidin-6-one] |  |  | 0.182
16 | Cc1cccc(Cn2nc(-c3nc(N)c4c(n3)NC(=O)C4(C)c3nc(CC(C)(C)C(=O)O)co3)c3ccc(F)cc32)c1F (stereo not drawn) [Example 212A, 3-(2-{4-amino-2-[6-fluoro-1-(2-fluoro-3-methyl-benzyl)-1H-indazol-3-yl]-5-methyl-6-oxo-6,7-dihydro-5H-pyrrolo[2,3-d]pyrimidin-5-yl}-1,3-oxazol-4-yl)-2,2-dimethyl-propanoic acid] | 135 |  | 
17 | CC1(c2cc(C(=O)O)ccn2)C(=O)Nc2nc(-c3nn(Cc4ccccc4F)c4cc(Cl)ccc34)nc(N)c21 (stereo not drawn) [Example 219A, 2-{4-amino-2-[6-chloro-1-(2-fluorobenzyl)-1H-indazol-3-yl]-5-methyl-6-oxo-6,7-dihydro-5H-pyrrolo[2,3-d]pyrimidin-5-yl} pyridine-4-carboxylic acid] |  |  | 0.183
